{
  "source": "patent US7022698B2",
  "about": "“Pharmaceutical compositions containing new polymorphic forms of olanzapine and uses thereof” (U & I Pharmaceuticals, Ltd., priority 1999, dated 2006)",
  "origin": "cited, not measured here",
  "key": {"[1]": {"tested_on": "schizophrenia and schizoaffecive and schizophreniform disorders", "settings": "for Montgomery-Asberg Depression Rating Scale (MADRS) total score, baseline to endpoint decline: 6-week trial, p=0.001"}, "bipolar type I patients": {"tested_on": "bipolar type I patients", "settings": "mean dose 13.8 mg/day"}, "[2]": {"tested_on": "psychotic mood disorders patients and schizophrenic patients"}, "[3]": {"tested_on": "dopamine receptors (D1 to D5)"}, "[4]": {"tested_on": "patients with Alzheimer's disease (AD)"}, "[5]": {"tested_on": "serotonin (5-HT) receptors"}, "[6]": {"tested_on": "inpatients with psychotic depression"}, "[7]": {"tested_on": "patients with schizophrenia", "settings": "10 mg/day, in comparison with olanzapine 1 mg/day or placebo"}, "[8]": {"tested_on": "inpatients with a diagnosis of psychotic disorders"}, "[9]": {"tested_on": "patients with Acute Mania", "settings": "5–20 mg/day"}, "[10]": {"tested_on": "muscarinic cholinergic receptor"}},
  "note": "Like-named read-outs stand apart in the source and are kept apart here.",
  "data": [
    {"smiles": "O=C(CCCN1CCC(O)(c2ccc(Cl)cc2)CC1)c1ccc(F)cc1", "note": "[haloperidol]", "values": [
      {"measurement": "Montgomery-Asberg Depression Rating Scale (MADRS) total score, baseline to endpoint decline", "setting": "[1]", "value": 3, "unit": "point"}
    ]},
    {"smiles": "Cc1cc2c(s1)Nc1ccccc1N=C2N1CCN(C)CC1", "note": "[olanzapine, 2-methyl-4-(4-methyl-1-piperazinyl)-10H-thieno-[2,3b][1,5] benzodiazepine]", "values": [
      {"measurement": "HAM-D score at baseline", "setting": "bipolar type I patients; 113 patients", "value": 12.2},
      {"measurement": "YMRS score at baseline", "setting": "bipolar type I patients; 113 patients", "value": 25.5},
      {"measurement": "HAM-D score on follow-up", "setting": "bipolar type I patients; average 6.7 months, p<0.001", "value": 6.5},
      {"measurement": "YMRS score on follow-up", "setting": "bipolar type I patients; average 6.7 months, p<0.001", "value": 7.5},
      {"measurement": "EPS", "setting": "bipolar type I patients", "value": "Few EPS were noted"},
      {"measurement": "mesolimbic and mesocortical selectivity", "value": "mesolimbic and mesocortical selectivity"},
      {"measurement": "K Axis V subscale scores, baseline to follow-up", "setting": "[2]; psychotic mood disorders group, psychological impairment, violence, and social skills subscales", "value": "statistically significant change"},
      {"measurement": "patients remaining hospitalized at follow-up", "setting": "[2]; psychotic mood disorders patient group (24/32)", "value": "Seventy-five"},
      {"measurement": "change on the CGI and GAF-EQ", "setting": "[2]; psychotic mood disorders patients (N=32) and schizophrenic patients (N=18) who continued olanzapine", "value": "statistically significant change toward improvement"},
      {"measurement": "K Axis V subscale scores, baseline to follow-up", "setting": "[2]; schizophrenic group, only on the violence subscale", "value": "significant change in score only on the violence subscale"},
      {"measurement": "patients remaining hospitalized at follow-up", "setting": "[2]; schizophrenic patients (18/18)", "value": 100, "unit": "%"},
      {"measurement": "Montgomery-Asberg Depression Rating Scale (MADRS) total score, baseline to endpoint decline", "setting": "[1]", "value": 6, "unit": "point"},
      {"measurement": "reduction of the MADRS scores", "setting": "[1]; subanalysis, schizoaffective patients currently depressed, p=0.002", "value": "superior to haloperidol"},
      {"measurement": "decrease of Brief Psychiatric Rating Scale (BPRS) mania score", "setting": "[1]; subanalysis, schizoaffective patients currently manic, p=0.25", "value": "as effective as haloperidol"},
      {"measurement": "affinity for dopaminic receptors", "setting": "[3]", "value": "nanomolar affinity"},
      {"measurement": "binding selectivity among dopamine receptors", "setting": "[3]; D1 to D5", "value": "relatively non-selective binding"},
      {"measurement": "affinity for α1-adrenergic receptors", "setting": "α1-adrenergic receptors", "value": "nanomolar affinity"},
      {"measurement": "inhibition of α-adrenergic receptor", "setting": "α1-adrenergic receptors", "value": "potent inhibitor"},
      {"measurement": "efficacy in reducing psychotic symptoms, parent study", "setting": "[4]; 5-mg/day dose", "value": "most efficacious"},
      {"measurement": "safety, parent study", "setting": "[4]; 5-mg/day dose", "value": "safest"},
      {"measurement": "efficacy in reducing psychotic symptoms, parent study", "setting": "[4]; 10-mg/day dose, relative to placebo", "value": "significant efficacy"},
      {"measurement": "expression of psychotic symptoms, parent study", "setting": "[4]; 15-mg/day dose", "value": "failed to separate from the placebo group"},
      {"measurement": "safety, parent study", "setting": "[4]; 15-mg/day dose", "value": "less tolerated safety profile"},
      {"measurement": "emergence of psychotic symptoms compared to placebo", "setting": "[4]; possible AD with agitation/aggression and no or minimal hallucinations and/or delusions", "value": "significantly lower emergence of psychotic symptoms"},
      {"measurement": "affinity for serotonergic receptors", "setting": "[5]", "value": "nanomolar affinity"},
      {"measurement": "inhibition of 5-HT receptors", "setting": "[5]; 5-HT2A, 5-HT2B, 5-HT2C, and 5-HT6 receptors", "value": "potent inhibitor"},
      {"measurement": "response rate", "setting": "[6]", "value": 67, "unit": "%"},
      {"measurement": "Hamilton Rating Scale for Depression scores", "setting": "[7]", "value": "significant reduction"},
      {"measurement": "overall response rate", "setting": "[8]; all patients", "value": 62, "unit": "%"},
      {"measurement": "response rate", "setting": "[8]; bipolar disorder patients", "value": 83, "unit": "%"},
      {"measurement": "percentage of patients who discontinued treatment because of lack of efficacy", "setting": "[9]; p=0.02 vs placebo", "value": 28.6, "unit": "%"},
      {"measurement": "patients with an improvement of 50% or more in Young Mania Rating Scale total score", "setting": "[9]; responder analysis", "value": 48.6, "unit": "%"},
      {"measurement": "affinity for muscarinic receptors", "setting": "[10]", "value": "nanomolar affinity"},
      {"measurement": "inhibition of muscarinic cholinergic receptor", "setting": "[10]; all five subtypes", "value": "potent inhibitor"}
    ]}
  ]
}
